# Laboratory results reported in PubChem BioAssay (NCI).
#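 Growth conditions: 96-well plates. Treatment: test compound, 48 hours, 5 concentrations. Analysis: linear interpolation between bracketing concentrations; unreached endpoints set to highest concentration. At the TGI there is no net growth.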
# Assays:
# Assay in all cases: growth of human tumour cells (NCI), 48 h
# U251 CNS = tested on: U251 CNS
# DU-145 prostate = tested on: DU-145 prostate
# M14 melanoma = tested on: M14 melanoma
# K-562 leukemia = tested on: K-562 leukemia
# A549 NSCLC = tested on: A549 NSCLC
# MDA-N = tested on: MDA-N
# NCI-H23 lung = tested on: NCI-H23 lung
# CCRF-CEM leukemia = tested on: CCRF-CEM leukemia
# HCT-116 colon = tested on: HCT-116 colon
# SF-268 CNS = tested on: SF-268 CNS
# SK-MEL-2 melanoma = tested on: SK-MEL-2 melanoma
# SK-MEL-28 melanoma = tested on: SK-MEL-28 melanoma
# SF-295 CNS = tested on: SF-295 CNS
# SK-MEL-5 melanoma = tested on: SK-MEL-5 melanoma
# LOX IMVI melanoma = tested on: LOX IMVI melanoma
# CAKI-1 renal = tested on: CAKI-1 renal
# RXF 393 renal = tested on: RXF 393 renal
# 786-0 renal = tested on: 786-0 renal
# HL-60(TB) leukemia = tested on: HL-60(TB) leukemia
# IGROV1 ovarian = tested on: IGROV1 ovarian
# HCT-15 colon = tested on: HCT-15 colon
# MDA-MB-231 breast = tested on: MDA-MB-231 breast
# RPMI-8226 leukemia = tested on: RPMI-8226 leukemia
# SR leukemia = tested on: SR leukemia
# OVCAR-5 ovarian = tested on: OVCAR-5 ovarian
# COLO 205 colon = tested on: COLO 205 colon
# HS 578T breast = tested on: HS 578T breast
# SF-539 CNS = tested on: SF-539 CNS
# OVCAR-4 ovarian = tested on: OVCAR-4 ovarian
# SNB-19 CNS = tested on: SNB-19 CNS
# UO-31 renal = tested on: UO-31 renal
# SK-OV-3 ovarian = tested on: SK-OV-3 ovarian
# HCC-2998 colon = tested on: HCC-2998 colon
# MCF7 breast = tested on: MCF7 breast
# ACHN renal = tested on: ACHN renal
# MALME-3M melanoma = tested on: MALME-3M melanoma
# PC-3 prostate = tested on: PC-3 prostate
# UACC-62 melanoma = tested on: UACC-62 melanoma
# NCI/ADR-RES ovarian = tested on: NCI/ADR-RES ovarian
# UACC-257 melanoma = tested on: UACC-257 melanoma
# HOP-92 NSCLC = tested on: HOP-92 NSCLC
# MOLT-4 leukemia = tested on: MOLT-4 leukemia
# MDA-MB-435 = tested on: MDA-MB-435
# KM12 colon = tested on: KM12 colon
# A498 renal = tested on: A498 renal
# SN12C renal = tested on: SN12C renal
# OVCAR-3 ovarian = tested on: OVCAR-3 ovarian
# NCI-H460 lung = tested on: NCI-H460 lung
# HOP-62 NSCLC = tested on: HOP-62 NSCLC
# TK-10 renal = tested on: TK-10 renal
# T-47D breast = tested on: T-47D breast
# SNB-75 CNS = tested on: SNB-75 CNS
# HT29 colon = tested on: HT29 colon
# SW-620 colon = tested on: SW-620 colon
# BT-549 breast = tested on: BT-549 breast
# NCI-H522 lung = tested on: NCI-H522 lung
# EKVX NSCLC = tested on: EKVX NSCLC
# OVCAR-8 ovarian = tested on: OVCAR-8 ovarian
# NCI-H226 lung = tested on: NCI-H226 lung
smiles,measurement,setting,value
[N-]=[N+]=NC1=C(c2ccccn2)C(=O)c2cccc3cccc1c23,TGI,U251 CNS,> 100 µM
same,TGI,DU-145 prostate,> 100 µM
same,TGI,M14 melanoma,> 100 µM
same,TGI,K-562 leukemia,> 100 µM
same,TGI,A549 NSCLC,> 100 µM
same,TGI,MDA-N,> 100 µM
same,TGI,NCI-H23 lung,> 100 µM
same,TGI,CCRF-CEM leukemia,> 100 µM
same,TGI,HCT-116 colon,> 100 µM
same,TGI,SF-268 CNS,65.9 µM
same,TGI,SK-MEL-2 melanoma,> 100 µM
same,TGI,SK-MEL-28 melanoma,> 100 µM
same,TGI,SF-295 CNS,> 100 µM
same,TGI,SK-MEL-5 melanoma,22.1 µM
same,TGI,LOX IMVI melanoma,> 100 µM
same,TGI,CAKI-1 renal,> 100 µM
same,TGI,RXF 393 renal,> 100 µM
same,TGI,786-0 renal,> 100 µM
same,TGI,HL-60(TB) leukemia,> 100 µM
same,TGI,IGROV1 ovarian,> 100 µM
same,TGI,HCT-15 colon,> 100 µM
same,TGI,MDA-MB-231 breast,> 100 µM
same,TGI,RPMI-8226 leukemia,> 100 µM
same,TGI,SR leukemia,> 100 µM
same,TGI,OVCAR-5 ovarian,> 100 µM
same,TGI,COLO 205 colon,> 100 µM
same,TGI,HS 578T breast,> 100 µM
same,TGI,SF-539 CNS,> 100 µM
same,TGI,OVCAR-4 ovarian,> 100 µM
same,TGI,SNB-19 CNS,> 100 µM
same,TGI,UO-31 renal,36.1 µM
same,TGI,SK-OV-3 ovarian,> 100 µM
same,TGI,HCC-2998 colon,> 100 µM
same,TGI,MCF7 breast,> 100 µM
same,TGI,ACHN renal,> 100 µM
same,TGI,MALME-3M melanoma,> 100 µM
same,TGI,PC-3 prostate,> 100 µM
same,TGI,UACC-62 melanoma,> 100 µM
same,TGI,NCI/ADR-RES ovarian,> 100 µM
same,TGI,UACC-257 melanoma,98.4 µM
same,TGI,HOP-92 NSCLC,> 100 µM
same,TGI,MOLT-4 leukemia,6.16 µM
same,TGI,MDA-MB-435,> 100 µM
same,TGI,KM12 colon,> 100 µM
same,TGI,A498 renal,31.5 µM
same,TGI,SN12C renal,> 100 µM
same,TGI,OVCAR-3 ovarian,> 100 µM
same,TGI,NCI-H460 lung,> 100 µM
same,TGI,HOP-62 NSCLC,> 100 µM
same,TGI,TK-10 renal,> 100 µM
same,TGI,T-47D breast,> 100 µM
same,TGI,SNB-75 CNS,> 100 µM
same,TGI,HT29 colon,> 100 µM
same,TGI,SW-620 colon,> 100 µM
same,TGI,BT-549 breast,67.2 µM
CC1=CC(C/C(C)=C/COc2ccc3ccc(=O)oc3c2)OC1=O (stereo unspecified),TGI,U251 CNS,> 100 µM
same,TGI,DU-145 prostate,> 100 µM
same,TGI,M14 melanoma,> 100 µM
same,TGI,K-562 leukemia,> 100 µM
same,TGI,A549 NSCLC,> 100 µM
same,TGI,MDA-N,> 100 µM
same,TGI,NCI-H23 lung,> 100 µM
same,TGI,CCRF-CEM leukemia,> 100 µM
same,TGI,HCT-116 colon,> 100 µM
same,TGI,SF-268 CNS,> 100 µM
same,TGI,NCI-H522 lung,> 100 µM
same,TGI,SK-MEL-28 melanoma,> 100 µM
same,TGI,SF-295 CNS,> 100 µM
same,TGI,SK-MEL-5 melanoma,> 100 µM
same,TGI,EKVX NSCLC,> 100 µM
same,TGI,LOX IMVI melanoma,> 100 µM
same,TGI,CAKI-1 renal,> 100 µM
same,TGI,RXF 393 renal,> 100 µM
same,TGI,786-0 renal,> 100 µM
same,TGI,OVCAR-8 ovarian,> 100 µM
same,TGI,HL-60(TB) leukemia,> 100 µM
same,TGI,IGROV1 ovarian,> 100 µM
same,TGI,HCT-15 colon,> 100 µM
same,TGI,MDA-MB-231 breast,> 100 µM
same,TGI,SR leukemia,> 100 µM
same,TGI,OVCAR-5 ovarian,> 100 µM
same,TGI,NCI-H226 lung,> 100 µM
same,TGI,COLO 205 colon,> 100 µM
same,TGI,HS 578T breast,> 100 µM
same,TGI,SF-539 CNS,> 100 µM
same,TGI,OVCAR-4 ovarian,> 100 µM
same,TGI,SNB-19 CNS,> 100 µM
same,TGI,UO-31 renal,> 100 µM
same,TGI,SK-OV-3 ovarian,> 100 µM
same,TGI,HCC-2998 colon,> 100 µM
same,TGI,MCF7 breast,> 100 µM
same,TGI,ACHN renal,> 100 µM
same,TGI,PC-3 prostate,> 100 µM
same,TGI,UACC-62 melanoma,> 100 µM
same,TGI,NCI/ADR-RES ovarian,> 100 µM
same,TGI,UACC-257 melanoma,> 100 µM
same,TGI,HOP-92 NSCLC,> 100 µM
same,TGI,MOLT-4 leukemia,> 100 µM
same,TGI,MDA-MB-435,> 100 µM
same,TGI,KM12 colon,> 100 µM
same,TGI,SN12C renal,> 100 µM
same,TGI,OVCAR-3 ovarian,> 100 µM
same,TGI,NCI-H460 lung,> 100 µM
same,TGI,HOP-62 NSCLC,> 100 µM
same,TGI,TK-10 renal,> 100 µM
same,TGI,T-47D breast,> 100 µM
same,TGI,SNB-75 CNS,> 100 µM
same,TGI,HT29 colon,> 100 µM
same,TGI,SW-620 colon,> 100 µM
same,TGI,BT-549 breast,> 100 µM
Cc1nc2sc3ccccc3n2c(=O)c1N=Nc1ccc(Cl)cc1,TGI,U251 CNS,> 100 µM
same,TGI,DU-145 prostate,> 100 µM
same,TGI,M14 melanoma,> 100 µM
same,TGI,K-562 leukemia,> 100 µM
same,TGI,A549 NSCLC,> 100 µM
same,TGI,MDA-N,> 100 µM
same,TGI,NCI-H23 lung,> 100 µM
same,TGI,CCRF-CEM leukemia,> 100 µM
same,TGI,HCT-116 colon,> 100 µM
same,TGI,SF-268 CNS,> 100 µM
same,TGI,SK-MEL-2 melanoma,> 100 µM
same,TGI,NCI-H522 lung,> 100 µM
same,TGI,SK-MEL-28 melanoma,> 100 µM
same,TGI,SF-295 CNS,> 100 µM
same,TGI,SK-MEL-5 melanoma,> 100 µM
same,TGI,EKVX NSCLC,> 100 µM
same,TGI,LOX IMVI melanoma,> 100 µM
same,TGI,CAKI-1 renal,> 100 µM
same,TGI,RXF 393 renal,> 100 µM
same,TGI,786-0 renal,> 100 µM
same,TGI,OVCAR-8 ovarian,> 100 µM
same,TGI,HL-60(TB) leukemia,> 100 µM
same,TGI,IGROV1 ovarian,> 100 µM
same,TGI,HCT-15 colon,> 100 µM
same,TGI,MDA-MB-231 breast,> 100 µM
same,TGI,RPMI-8226 leukemia,> 100 µM
same,TGI,SR leukemia,> 100 µM
same,TGI,OVCAR-5 ovarian,> 100 µM
same,TGI,NCI-H226 lung,> 100 µM
same,TGI,COLO 205 colon,> 100 µM
same,TGI,HS 578T breast,> 100 µM
same,TGI,SF-539 CNS,> 100 µM
same,TGI,OVCAR-4 ovarian,> 100 µM
same,TGI,SNB-19 CNS,> 100 µM
same,TGI,SK-OV-3 ovarian,> 100 µM
same,TGI,MCF7 breast,> 100 µM
same,TGI,ACHN renal,> 100 µM
same,TGI,MALME-3M melanoma,> 100 µM
same,TGI,PC-3 prostate,> 100 µM
same,TGI,UACC-62 melanoma,> 100 µM
same,TGI,NCI/ADR-RES ovarian,> 100 µM
same,TGI,UACC-257 melanoma,> 100 µM
same,TGI,HOP-92 NSCLC,> 100 µM
same,TGI,MOLT-4 leukemia,> 100 µM
same,TGI,MDA-MB-435,> 100 µM
same,TGI,KM12 colon,> 100 µM
same,TGI,SN12C renal,> 100 µM
same,TGI,OVCAR-3 ovarian,> 100 µM
same,TGI,NCI-H460 lung,> 100 µM
same,TGI,HOP-62 NSCLC,> 100 µM
same,TGI,TK-10 renal,> 100 µM
same,TGI,T-47D breast,> 100 µM
same,TGI,SNB-75 CNS,> 100 µM
same,TGI,HT29 colon,> 100 µM
same,TGI,SW-620 colon,> 100 µM
same,TGI,BT-549 breast,> 100 µM
